# Test results from article PMC6886798, “Expression of myeloid Src-family kinases is associated with poor prognosis in AML and influences Flt3-ITD kinase inhibitor acquired resistance” (PLoS ONE, 2019).
# Assays:
# Assay in all cases: KINOMEscan
# Format in all cases: binding
# Details in all cases: 1.0 µM
# [1] = biological target: T1, ABL1(F317I)-phosphorylated (Homo sapiens, UniProt P00519, F317I)
# T1 construct: purchased Eurofins/DiscoverX KINOMEscan scanMAX
# Experimental: (§1) Kinase retention to the immobilized ligand is then measured using quantitative real-time PCR for each kinase-specific DNA barcode.
# [2] = biological target: T2, ABL1(M351T)-phosphorylated (Homo sapiens, UniProt P00519, M351T)
# T2 construct: purchased Eurofins/DiscoverX KINOMEscan scanMAX
# Experimental: as §1
# [3] = biological target: T3, ALK(C1156Y) (Homo sapiens, UniProt Q9UM73, C1156Y)
# T3 construct: purchased Eurofins/DiscoverX KINOMEscan scanMAX
# Experimental: as §1
# [4] = biological target: T4, AMPK-alpha1 (Homo sapiens, UniProt Q13131)
# T4 construct: purchased Eurofins/DiscoverX KINOMEscan scanMAX
# Experimental: as §1
# [5] = biological target: T5, CDC2L2 (Homo sapiens, UniProt Q9UQ88)
# T5 construct: purchased Eurofins/DiscoverX KINOMEscan scanMAX
# Experimental: as §1
# [6] = biological target: T6, CDK4-cyclinD1 (Homo sapiens, UniProt P11802)
# T6 construct: purchased Eurofins/DiscoverX KINOMEscan scanMAX
# Experimental: as §1
# [7] = biological target: T7, CDK8 (Homo sapiens, UniProt P49336)
# T7 construct: purchased Eurofins/DiscoverX KINOMEscan scanMAX
# Experimental: as §1
# [8] = biological target: T8, CHEK2 (Homo sapiens, UniProt O96017)
# T8 construct: purchased Eurofins/DiscoverX KINOMEscan scanMAX
# Experimental: as §1
# [9] = biological target: T9, CSF1R-autoinhibited (Homo sapiens, UniProt P07333)
# T9 construct: purchased Eurofins/DiscoverX KINOMEscan scanMAX
# Experimental: as §1
# [10] = biological target: T10, CSNK2A2 (Homo sapiens, UniProt P19784)
# T10 construct: purchased Eurofins/DiscoverX KINOMEscan scanMAX
# Experimental: as §1
# [11] = biological target: T11, DLK (Homo sapiens, UniProt Q12852)
# T11 construct: purchased Eurofins/DiscoverX KINOMEscan scanMAX
# Experimental: as §1
# [12] = biological target: T12, EPHA2 (Homo sapiens, UniProt P29317)
# T12 construct: purchased Eurofins/DiscoverX KINOMEscan scanMAX
# Experimental: as §1
# [13] = biological target: T13, GRK4 (Homo sapiens, UniProt P32298)
# T13 construct: purchased Eurofins/DiscoverX KINOMEscan scanMAX
# Experimental: as §1
# [14] = biological target: T14, IGF1R (Homo sapiens, UniProt P08069)
# T14 construct: purchased Eurofins/DiscoverX KINOMEscan scanMAX
# Experimental: as §1
# [15] = biological target: T15, IRAK1 (Homo sapiens, UniProt P51617)
# T15 construct: purchased Eurofins/DiscoverX KINOMEscan scanMAX
# Experimental: as §1
# [16] = biological target: T16, MEK2 (Homo sapiens, UniProt P36507)
# T16 construct: purchased Eurofins/DiscoverX KINOMEscan scanMAX
# Experimental: as §1
# [17] = biological target: T17, MELK (Homo sapiens, UniProt Q14680)
# T17 construct: purchased Eurofins/DiscoverX KINOMEscan scanMAX
# Experimental: as §1
# [18] = biological target: T18, MET (Homo sapiens, UniProt P08581)
# T18 construct: purchased Eurofins/DiscoverX KINOMEscan scanMAX
# Experimental: as §1
# [19] = biological target: T19, MLK3 (Homo sapiens, UniProt Q16584)
# T19 construct: purchased Eurofins/DiscoverX KINOMEscan scanMAX
# Experimental: as §1
# [20] = biological target: T20, NEK7 (Homo sapiens, UniProt Q8TDX7)
# T20 construct: purchased Eurofins/DiscoverX KINOMEscan scanMAX
# Experimental: as §1
# [21] = biological target: T21, PIK3C2G (Homo sapiens, UniProt O75747)
# T21 construct: purchased Eurofins/DiscoverX KINOMEscan scanMAX
# Experimental: as §1
# [22] = biological target: T22, PRKCH (Homo sapiens, UniProt P24723)
# T22 construct: purchased Eurofins/DiscoverX KINOMEscan scanMAX
# Experimental: as §1
# [23] = biological target: T23, PRKG2 (Homo sapiens, UniProt Q13237)
# T23 construct: purchased Eurofins/DiscoverX KINOMEscan scanMAX
# Experimental: as §1
# [24] = biological target: T24, SIK (Homo sapiens, UniProt P57059)
# T24 construct: purchased Eurofins/DiscoverX KINOMEscan scanMAX
# Experimental: as §1
# [25] = biological target: T25, STK35 (Homo sapiens, UniProt Q8TDR2)
# T25 construct: purchased Eurofins/DiscoverX KINOMEscan scanMAX
# Experimental: as §1
# [26] = biological target: T26, TLK1 (Homo sapiens, UniProt Q9UKI8)
# T26 construct: purchased Eurofins/DiscoverX KINOMEscan scanMAX
# Experimental: as §1
# [27] = biological target: T27, TNK1 (Homo sapiens, UniProt Q13470)
# T27 construct: purchased Eurofins/DiscoverX KINOMEscan scanMAX
# Experimental: as §1
# [28] = biological target: T28, TRKC (Homo sapiens, UniProt Q16288)
# T28 construct: DNA tag (qPCR barcode); purchased Eurofins/DiscoverX KINOMEscan scanMAX
# Experimental: as §1
# [29] = biological target: T29, WEE1 (Homo sapiens, UniProt P30291)
# T29 construct: DNA tag (qPCR barcode); purchased Eurofins/DiscoverX KINOMEscan scanMAX
# Experimental: as §1
# [30] = biological target: T30, WNK2 (Homo sapiens, UniProt Q9Y3S1)
# T30 construct: DNA tag (qPCR barcode); purchased Eurofins/DiscoverX KINOMEscan scanMAX
# Experimental: as §1
# [31] = biological target: T31, YANK3 (Homo sapiens, UniProt Q86UX6)
# T31 construct: purchased Eurofins/DiscoverX (KINOMEscan scanMAX service)
# Experimental: as §1
# T29 sequence (P30291 whole entry): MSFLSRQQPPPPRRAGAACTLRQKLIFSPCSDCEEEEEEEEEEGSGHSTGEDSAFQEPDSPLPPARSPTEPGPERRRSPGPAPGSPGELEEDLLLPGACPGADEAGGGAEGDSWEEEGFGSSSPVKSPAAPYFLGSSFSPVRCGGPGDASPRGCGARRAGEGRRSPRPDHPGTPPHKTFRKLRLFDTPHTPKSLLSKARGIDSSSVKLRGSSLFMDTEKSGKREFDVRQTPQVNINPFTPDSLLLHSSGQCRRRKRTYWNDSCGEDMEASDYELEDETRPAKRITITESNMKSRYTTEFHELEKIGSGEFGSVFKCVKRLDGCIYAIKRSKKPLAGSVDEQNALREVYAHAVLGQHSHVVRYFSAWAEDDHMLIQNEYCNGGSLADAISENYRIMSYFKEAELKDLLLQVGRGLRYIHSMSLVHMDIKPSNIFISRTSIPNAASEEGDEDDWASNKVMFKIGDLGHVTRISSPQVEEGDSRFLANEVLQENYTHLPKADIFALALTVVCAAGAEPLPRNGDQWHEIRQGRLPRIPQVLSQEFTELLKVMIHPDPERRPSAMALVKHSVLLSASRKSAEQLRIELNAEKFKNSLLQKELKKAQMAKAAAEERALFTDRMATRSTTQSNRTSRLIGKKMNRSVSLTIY
# T14 sequence (P08069 31-1367): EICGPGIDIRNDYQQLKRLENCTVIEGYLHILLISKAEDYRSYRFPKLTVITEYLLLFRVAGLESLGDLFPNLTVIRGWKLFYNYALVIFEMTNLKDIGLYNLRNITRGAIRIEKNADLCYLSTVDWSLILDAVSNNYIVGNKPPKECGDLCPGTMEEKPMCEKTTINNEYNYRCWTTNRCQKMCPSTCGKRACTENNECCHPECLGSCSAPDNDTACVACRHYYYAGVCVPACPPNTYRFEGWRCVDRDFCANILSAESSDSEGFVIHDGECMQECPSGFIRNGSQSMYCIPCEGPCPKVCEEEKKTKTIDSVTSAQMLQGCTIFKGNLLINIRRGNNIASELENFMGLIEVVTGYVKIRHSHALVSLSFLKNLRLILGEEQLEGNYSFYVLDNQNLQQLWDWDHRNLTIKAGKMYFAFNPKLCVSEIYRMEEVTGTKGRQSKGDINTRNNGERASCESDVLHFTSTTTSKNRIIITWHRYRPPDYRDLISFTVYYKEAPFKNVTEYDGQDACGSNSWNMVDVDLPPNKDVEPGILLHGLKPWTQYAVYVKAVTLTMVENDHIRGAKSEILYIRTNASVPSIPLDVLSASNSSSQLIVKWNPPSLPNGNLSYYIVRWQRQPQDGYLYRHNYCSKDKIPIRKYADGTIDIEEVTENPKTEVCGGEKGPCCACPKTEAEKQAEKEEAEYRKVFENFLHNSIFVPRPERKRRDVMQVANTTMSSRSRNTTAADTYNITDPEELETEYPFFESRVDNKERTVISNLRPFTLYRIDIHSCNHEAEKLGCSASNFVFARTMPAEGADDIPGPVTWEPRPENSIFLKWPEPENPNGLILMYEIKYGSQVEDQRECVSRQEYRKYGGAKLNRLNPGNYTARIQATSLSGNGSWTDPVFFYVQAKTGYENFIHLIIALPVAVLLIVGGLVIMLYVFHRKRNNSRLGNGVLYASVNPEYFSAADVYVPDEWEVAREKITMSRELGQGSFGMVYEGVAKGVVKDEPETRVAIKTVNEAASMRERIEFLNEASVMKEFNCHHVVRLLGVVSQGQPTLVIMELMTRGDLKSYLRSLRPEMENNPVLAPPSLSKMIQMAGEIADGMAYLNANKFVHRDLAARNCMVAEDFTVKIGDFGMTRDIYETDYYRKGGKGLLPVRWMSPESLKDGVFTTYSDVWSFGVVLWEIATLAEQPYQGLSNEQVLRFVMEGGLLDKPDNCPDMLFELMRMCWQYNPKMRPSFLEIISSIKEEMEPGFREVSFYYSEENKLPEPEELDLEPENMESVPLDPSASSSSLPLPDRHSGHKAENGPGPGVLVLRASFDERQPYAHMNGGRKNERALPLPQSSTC
# T11 sequence (Q12852 whole entry): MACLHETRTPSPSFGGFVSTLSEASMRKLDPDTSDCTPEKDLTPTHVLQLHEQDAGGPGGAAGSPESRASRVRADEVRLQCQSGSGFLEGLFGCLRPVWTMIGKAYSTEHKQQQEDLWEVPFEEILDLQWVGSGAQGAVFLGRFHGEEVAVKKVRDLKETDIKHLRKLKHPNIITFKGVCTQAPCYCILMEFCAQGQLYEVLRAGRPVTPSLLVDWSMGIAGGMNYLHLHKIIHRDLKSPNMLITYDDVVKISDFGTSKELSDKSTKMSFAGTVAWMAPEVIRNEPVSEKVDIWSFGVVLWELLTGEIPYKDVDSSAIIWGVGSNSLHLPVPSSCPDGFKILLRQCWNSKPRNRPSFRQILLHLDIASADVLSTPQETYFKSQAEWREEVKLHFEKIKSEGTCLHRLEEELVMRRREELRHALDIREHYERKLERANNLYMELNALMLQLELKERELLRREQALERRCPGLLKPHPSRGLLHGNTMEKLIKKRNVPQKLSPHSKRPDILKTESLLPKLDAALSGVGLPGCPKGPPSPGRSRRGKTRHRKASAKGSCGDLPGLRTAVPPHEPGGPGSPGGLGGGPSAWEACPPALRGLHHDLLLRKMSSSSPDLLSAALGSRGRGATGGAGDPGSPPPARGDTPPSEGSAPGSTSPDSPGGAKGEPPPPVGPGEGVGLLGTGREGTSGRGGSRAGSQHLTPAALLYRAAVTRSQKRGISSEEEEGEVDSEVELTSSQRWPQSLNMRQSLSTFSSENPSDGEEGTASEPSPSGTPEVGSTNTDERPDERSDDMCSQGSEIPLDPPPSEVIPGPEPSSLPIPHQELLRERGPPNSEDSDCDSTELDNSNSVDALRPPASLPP
# T15 sequence (P51617 whole entry): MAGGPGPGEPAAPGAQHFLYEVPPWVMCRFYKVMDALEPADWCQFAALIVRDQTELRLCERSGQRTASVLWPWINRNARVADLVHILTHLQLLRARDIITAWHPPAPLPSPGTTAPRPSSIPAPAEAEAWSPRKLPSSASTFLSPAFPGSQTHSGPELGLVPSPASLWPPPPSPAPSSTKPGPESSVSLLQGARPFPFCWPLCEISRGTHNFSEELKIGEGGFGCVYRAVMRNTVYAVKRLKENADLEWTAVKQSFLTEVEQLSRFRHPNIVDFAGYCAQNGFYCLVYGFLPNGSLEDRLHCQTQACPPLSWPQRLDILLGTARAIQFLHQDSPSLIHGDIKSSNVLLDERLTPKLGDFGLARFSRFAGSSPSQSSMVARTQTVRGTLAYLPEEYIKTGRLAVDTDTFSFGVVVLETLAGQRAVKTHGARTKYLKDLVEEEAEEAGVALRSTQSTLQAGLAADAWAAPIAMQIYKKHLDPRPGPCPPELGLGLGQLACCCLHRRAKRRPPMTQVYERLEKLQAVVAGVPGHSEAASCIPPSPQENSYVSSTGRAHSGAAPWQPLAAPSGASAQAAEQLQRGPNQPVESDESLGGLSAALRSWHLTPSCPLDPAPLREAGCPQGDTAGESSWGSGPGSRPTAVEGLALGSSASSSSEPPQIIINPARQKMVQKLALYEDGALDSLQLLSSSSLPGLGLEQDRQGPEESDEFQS
# T12 sequence (P29317 24-976): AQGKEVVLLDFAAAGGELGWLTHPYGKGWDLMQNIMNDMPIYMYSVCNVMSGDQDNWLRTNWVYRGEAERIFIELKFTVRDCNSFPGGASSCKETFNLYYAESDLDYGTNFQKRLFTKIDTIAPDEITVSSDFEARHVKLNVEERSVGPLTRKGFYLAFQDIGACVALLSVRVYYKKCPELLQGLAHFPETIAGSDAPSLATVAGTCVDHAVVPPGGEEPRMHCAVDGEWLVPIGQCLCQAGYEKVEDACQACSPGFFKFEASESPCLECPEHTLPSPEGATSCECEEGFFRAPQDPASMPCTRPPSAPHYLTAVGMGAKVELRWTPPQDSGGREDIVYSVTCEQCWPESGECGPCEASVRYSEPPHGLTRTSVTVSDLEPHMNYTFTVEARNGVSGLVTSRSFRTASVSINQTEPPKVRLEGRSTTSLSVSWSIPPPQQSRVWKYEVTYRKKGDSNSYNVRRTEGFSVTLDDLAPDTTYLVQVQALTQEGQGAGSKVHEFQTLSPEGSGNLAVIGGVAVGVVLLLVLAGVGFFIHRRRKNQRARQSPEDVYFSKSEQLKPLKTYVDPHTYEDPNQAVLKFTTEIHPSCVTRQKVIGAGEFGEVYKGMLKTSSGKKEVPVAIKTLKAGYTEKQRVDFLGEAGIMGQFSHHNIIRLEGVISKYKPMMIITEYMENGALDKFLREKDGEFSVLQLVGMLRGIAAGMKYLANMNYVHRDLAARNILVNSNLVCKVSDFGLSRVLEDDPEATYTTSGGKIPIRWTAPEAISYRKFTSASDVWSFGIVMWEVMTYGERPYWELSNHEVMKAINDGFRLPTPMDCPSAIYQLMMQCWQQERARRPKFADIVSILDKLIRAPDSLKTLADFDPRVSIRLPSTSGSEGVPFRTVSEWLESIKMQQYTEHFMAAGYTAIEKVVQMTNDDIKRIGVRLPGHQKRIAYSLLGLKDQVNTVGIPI
# T25 sequence (Q8TDR2 whole entry): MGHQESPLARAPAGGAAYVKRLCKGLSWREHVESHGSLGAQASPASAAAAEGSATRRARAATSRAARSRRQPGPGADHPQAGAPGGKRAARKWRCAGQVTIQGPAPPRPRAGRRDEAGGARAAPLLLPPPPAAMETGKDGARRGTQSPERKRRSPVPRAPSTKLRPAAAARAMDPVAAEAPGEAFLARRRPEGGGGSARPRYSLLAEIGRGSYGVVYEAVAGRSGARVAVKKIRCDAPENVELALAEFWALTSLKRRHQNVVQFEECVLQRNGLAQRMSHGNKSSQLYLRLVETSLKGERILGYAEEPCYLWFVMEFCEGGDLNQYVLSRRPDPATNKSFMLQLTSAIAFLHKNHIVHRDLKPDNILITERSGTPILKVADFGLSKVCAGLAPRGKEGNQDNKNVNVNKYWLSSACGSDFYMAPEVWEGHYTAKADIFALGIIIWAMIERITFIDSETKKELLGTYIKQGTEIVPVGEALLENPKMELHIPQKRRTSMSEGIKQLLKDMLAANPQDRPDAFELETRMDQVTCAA
compound,measurement,setting,value
CN1CCN(C2CCC(n3cc(-c4ccc(Oc5ccccc5)cc4)c4c(N)ncnc43)CC2)CC1 (stereo not shown) [A-419259],% Control,[1],2.4%
same,% Control,[2],1.6%
same,% Control,[3],21%
same,% Control,[4],43%
same,% Control,[5],91%
same,% Control,[6],27%
same,% Control,[7],28%
same,% Control,[8],40%
same,% Control,[9],57%
same,% Control,[10],66%
same,% Control,[11],54%
same,% Control,[12],100%
same,% Control,[13],100%
same,% Control,[14],80%
same,% Control,[15],98%
same,% Control,[16],0.2%
same,% Control,[17],21%
same,% Control,[18],58%
same,% Control,[19],100%
same,% Control,[20],91%
same,% Control,[21],100%
same,% Control,[22],87%
same,% Control,[23],100%
same,% Control,[24],2.1%
same,% Control,[25],27%
same,% Control,[26],93%
same,% Control,[27],0%
same,% Control,[28],45%
same,% Control,[29],100%
same,% Control,[30],67%
same,% Control,[31],100%
